Measurements published in ChEMBL document CHEMBL5344424, “3-Hydroxypyridin-4(1H)-one Derivatives as pqs Quorum Sensing Inhibitors Attenuate Virulence and Reduce Antibiotic Resistance in Pseudomonas aeruginosa” (J Med Chem, 2023).

How the values were obtained:
[1] = Inhibition of quorum sensing system in Pseudomonas aeruginosa PAO1 assessed as inhibition of pyocyanin production at 10 uM incubated for 24 hrs by optical density based analysis relative to control
[2] = Inhibition of quorum sensing system in Pseudomonas aeruginosa PAO1 assessed as inhibition of pyocyanin production incubated for 24 hrs by optical density based analysis
[3] = system: Pseudomonas aeruginosa; experiment: Synergistic antibacterial activity against Pseudomonas aeruginosa PAO1 infected in Caenorhabditis elegans assessed as worm survival rate at 0.125 ug/ml incubated for 72 hrs in presence of compound 16e by bright-field microscopy relative to control; assay type: functional

| Structure (SMILES) | inhibition [1] [%] | IC50 [2] [µM] | survival at 0.125 µg/mL [3] [%] |
| --- | --- | --- | --- |
| Cc1cc(=O)c(O)c(CNCc2cn(-c3ccncc3)nn2)n1C | – | > 50 | – |
| CC(=O)c1ccccc1-n1cc(CNCc2c(O)c(=O)cc(C)n2C)nn1 | – | 24.8 | – |
| Cn1cc(O)c(=O)cc1CNCc1cn(-c2ccc(OC(F)(F)F)cc2)nn1 | – | 18.9 | – |
| Cc1cc(=O)c(O)c(CNCc2cn(-c3ccccc3[N+](=O)[O-])nn2)n1C | – | > 50 | – |
| Cc1cc(=O)c(O)c(CNCc2cn(-c3ccc(O)cc3)nn2)n1C | – | 24 | – |
| Cc1cc(=O)c(O)c(CNCc2cn(-c3cccc(F)c3)nn2)n1C | – | 45.8 | – |
| CCCCCn1cc(CNCc2c(O)c(=O)cc(C)n2C)nn1 | – | 35.3 | – |
| COC(=O)c1ccc(-n2cc(CNCc3c(O)c(=O)cc(C)n3C)nn2)cc1 | – | 45.8 | – |
| Cc1cc(=O)c(O)c(CNCc2cn(-c3ccc(Br)cc3)nn2)n1C | – | 46.2 | – |
| COc1ccccc1-n1cc(CNCc2c(O)c(=O)cc(C)n2C)nn1 | – | 29.2 | – |
| Cc1cc(=O)c(O)c(CNCc2cn(-c3ccccc3)nn2)n1C | – | 34.7 | – |
| Cc1cc(=O)c(O)c(CNCc2cn(-c3ccc(N)cc3)nn2)n1C | – | 44.9 | – |
| CC(=O)c1ccc(-n2cc(CNCc3c(O)c(=O)cc(C)n3C)nn2)cc1 | – | 37.4 | – |
| CCCCCCn1cc(CNCc2c(O)c(=O)cc(C)n2C)nn1 | – | 35.9 | – |
| COc1cccc(-n2cc(CNCc3c(O)c(=O)cc(C)n3C)nn2)c1 | – | 42 | – |
| Cc1cc(=O)c(O)c(CNCc2cn(-c3ccc(N4CCN(C)CC4)cc3)nn2)n1C | – | > 50 | – |
| Cc1cc(=O)c(O)c(CNCc2cn(-c3ccccc3Br)nn2)n1C | – | 32.2 | – |
| Cc1cc(=O)c(O)c(CNCc2cn(-c3ccc(C#N)cc3)nn2)n1C | – | > 50 | – |
| CCCCn1cc(CNCc2c(O)c(=O)cc(C)n2C)nn1 | – | > 50 | – |
| Cc1cc(=O)c(O)c(CNCc2cn(-c3ccccc3C#N)nn2)n1C | – | > 50 | – |
| CCCCCCCn1cc(CNCc2c(O)c(=O)cc(C)n2C)nn1 | – | 22 | – |
| COC(=O)c1ccccc1-n1cc(CNCc2c(O)c(=O)cc(C)n2C)nn1 | – | 28.4 | – |
| Cc1cc(=O)c(O)c(CNCc2cn(-c3ccc(N(C)C)cc3)nn2)n1C | – | 33.2 | – |
| CCCCCCCCn1cc(CNCc2cc(=O)c(O)cn2C)nn1 | – | 21 | – |
| Cc1cc(=O)c(O)c(CNCC(=O)Nc2ccc(Oc3ccccc3)cc2)n1C | – | 19.4 | – |
| Cc1cc(=O)c(O)c(CNCc2cn(-c3ccccn3)nn2)n1C | – | > 50 | – |
| O=C(O)c1cn(C2CC2)c2cc(N3CCNCC3)c(F)cc2c1=O [CIPROFLOXACIN] | – | – | 35.7 |
| Cc1cc(=O)c(O)c(CNCc2cn(-c3cccc(Cl)c3)nn2)n1C | – | > 50 | – |

The remaining compounds from weak to strong by IC50 [2], led by results:

| inhibition [1] [%] | IC50 [2] [µM] | Structure (SMILES) | survival at 0.125 µg/mL [3] [%] |
| --- | --- | --- | --- |
| – | 18.4 | Cc1cc(=O)c(O)c(CNCc2cn(-c3ccccc3Cl)nn2)n1C | – |
| – | 18.2 | Cc1cc(=O)c(O)c(CNCc2cn(-c3ccc(F)cc3)nn2)n1C | – |
| – | 18.2 | Cc1cc(=O)c(O)c(CNCc2cn(-c3ccccc3F)nn2)n1C | – |
| – | 15.2 | Cc1cc(=O)c(O)c(CNCc2cn(-c3ccc(Cl)cc3)nn2)n1C | – |
| 49 | 9.8 | Cc1cc(=O)c(O)c(CNCc2cn(-c3ccccc3C(F)(F)F)nn2)n1C | – |
| 44.9 | 8.5 | Cc1ccc(-n2cc(CNCc3c(O)c(=O)cc(C)n3C)nn2)cc1 | – |
| 43.3 | 8.4 | Cc1cc(=O)c(O)cn1Cc1cn(-c2ccc(Oc3ccccc3)cc2)nn1 | – |
| 50.1 | 8.1 | Cc1cc(=O)c(O)c(CNCc2cn(-c3ccccc3OC(F)(F)F)nn2)n1C | – |
| 60.1 | 7.7 | Cc1cc(=O)c(O)c(CNCc2cn(-c3ccc(C(F)(F)F)cc3)nn2)n1C | – |
| 52 | 6.9 | COc1ccc(-n2cc(CNCc3c(O)c(=O)cc(C)n3C)nn2)cc1 | – |
| 51.2 | 6.6 | CCCCCCCCCn1cc(CNCc2c(O)c(=O)cc(C)n2C)nn1 | – |
| 58.3 | 6.1 | Cn1cc(O)c(=O)cc1CNCc1cn(-c2ccc(Oc3ccccc3)cc2)nn1 | – |
| 55.1 | 5.1 | Cc1cc(=O)c(O)c(COCc2cn(-c3ccc(Oc4ccccc4)cc3)nn2)n1C | – |
| 64 | 4.6 | CCCCCCCCn1cc(CNCc2c(O)c(=O)cc(C)n2C)nn1 | – |
| 66.7 | 4 | Cc1cc(=O)c(O)c(CNCc2cn(-c3ccc(OC(F)(F)F)cc3)nn2)n1C | – |
